Measurements reported in US20250188078A1, “SMALL MOLECULE INHIBITORS OF THE CRL4 UBIQUITIN LIGASE” (Cornell University, priority 2022, published 2025).

Columns and labels:
[1] = Dynamic light scattering (DLS) solubility assay; format: physicochemical; details: normalized intensity ratio of 25 μM compound vs DMSO, in PBS
Protocol: Dynamic light scattering (DLS) (see Table 1, column 3) is a tool for studying the diffusion behavior of macromolecules in solution. To profile compound solubility, DLS assay was developed for measuring aggregation of small molecule compounds. Compound stock solution was prepared in DMSO. Dilution series were made for each compound in DMSO to ensure a final 1× assay concentration range of 200 μM to 0.78 μM. For example, if the final DMSO concentration was 1%, compounds were prepared at 100× concentrations ranging from […] to 78 μM. Dilute compounds in PBS solution to final concentration. Place 60 μl/well in 96 well plates and 3 replicates for each sample. Data were collected using a DynaPro Plate Reader III (WYATT Technologies, Inc., USA). The instrument was adjusted to measure the optimal light scattering intensity according to the manufacturer's instructions. […] The ratio over 2 means (−) insoluble. The ratio below 2 means (+) soluble and around 2 means (+/−).

[2] = target: CUL4A-DDB1-BPB interaction (Homo sapiens (Human), UniProt Q16531); assay: AlphaLISA in vitro binding assay, CUL4A and DDB1-BPB binding; details: inhibition of CUL4A and DDB1-BPB binding
Summary of the method: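 Compound disruption of CUL4A binding to DDB1-BPB measured by AlphaLISA/AlphaScreen bead proximity in 384-well format. IC50 from nonlinear log(inhibitor)-vs-response curve fit.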

[3] = test system: UV-induced CUL4-dependent DDB2 degradation in MEF-F-DDB2 cells; assay: Cell-based assay for inhibition of UV-induced CUL4-dependent DDB2 degradation; design: key: (+) means that the normalized DDB2/α-tubulin ratio is higher in the compound treated sample than DMSO treated sample; (−) means that no change happens between compound treated sample with control sample; details: DDB2/α-tubulin by Western blot
Summary of the method: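 MEF cells expressing Flag-DDB2, in serum-free medium, treated with DMSO or compound, UV-irradiated (254 nm, 0.2 W/m^2), then harvested. Flag-DDB2 measured by western blot against α-tubulin; (+) denotes normalized DDB2/α-tubulin above DMSO, (−) no change.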

[4] = test system: CUL4A^high MDA-MB-468 breast cancer cells; assay: Cell killing in CUL4-high MDA-MB-468 cells (CellTiter Glo); format: cell-based; details: Homo sapiens, 192 h; MDA-MB-468 cells, 8 days treatment; read-out: EC50 CUL4-High Cells (cell killing)
Summary of the method: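 Cells seeded, treated after 24 h with DMSO or compound (0 to 20 μM). Medium and compound replaced every 48 h over 8 days. Viability measured by CellTiter-Glo luminescence; EC50 (50% killing) from log(inhibitor) vs response nonlinear fit.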

[5] = test system: CUL4A^low T47D breast cancer cells; assay: Cell killing in CUL4-low T47D cells (CellTiter Glo); format: cell-based; details: Homo sapiens, 192 h; T47D cells, 8 days treatment; read-out: EC50 CUL4-Low Cells (cell killing)
Protocol: EC50 indicates compound concentration can cause 50% cell killing in CUL4° ^w T47D cells (see Table 1, column 7). CUL4A^low T47D breast cancer cells were seeded in 96 well plate. […] Change fresh medium and compounds every 48 hours. After 8 days treatment, cell viability was examined by using CellTiter Glo kit (Promega #7570) following the manufacturer's guidelines (https://www.promega.com/-/media/files/resources/protocols/technical-bulletins/0/celltiter-glo-luminescent-cell-viability-assay-protocol.pdf?rev=0d95c232094b41daa06d0c110d1d916f&sc_lang=en, hereby incorporated by reference in its entirety for all purposes). EC50 concentration was calculated by Prism 8 XY analysis nonlinear regression (curve fit-Log(inhibitor) vs response). EC50 indicates cell killing potential in CUL4 low T47D cell line and the EC50 difference between CUL4^high and CUL4^low cells indicates the small molecule cause specific cell killing.
CUL4A^high MDA-MB-468, CUL4^low (T47D), and MCF7 breast cancer cells were seeded in 96 well plates separately. […] Replace with fresh medium and compounds every 48 hours. After 8 days treatment, cell viability was examined by CellTiter Glo kit (Promega #7570). First, transfer the appropriate volume (10 ml for Cat. #G7570) of CellTiter-Glo® Buffer into the amber bottle containing CellTiter-Glo® Substrate to reconstitute the lyophilized enzyme/substrate mixture. This forms the CellTiter-Glo® Reagent. Second, add CellTiter-Glo® Reagent in an equal volume (100 μl per well for 96-well plates) to all wells. Mix contents for 2 minutes on an orbital shaker to induce cell lysis. Incubate at room temperature for 15 minutes to stabilize luminescent signal. Then record luminescence. EC50 concentration was calculated by Prism 8 XY analysis nonlinear regression (curve fit-Log(inhibitor) vs response).

[6] = target: DDB1-BPB (Homo sapiens (Human), UniProt Q16531); assay: Microscale Thermophoresis (MST) binding to DDB1-BPB; details: labeled DDB1-BPB, 25° C.
Protocol: Kd represents dissociation constant, which measures the affinity of small molecule binding to the scaffold DDB1-BPB by Microscale Thermophoresis (MST) (see Table 1, column 9). MST experiments were performed on a Monolith NT 115 system (Nano Temper Technologies, Munich, Germany) using 100% LED and 60% IR-laser power (https://physiology.case.edu/media/eq manuals/eq_manual_nano-temper_mst_starting_guide.pdf, hereby incorporated by reference in its entirety for all purposes). The labeling of DDB1-BPB ([…]) was performed in labeling buffer with NHS-Red reactive dye (30 μM) (Nanotemper), which reacts efficiently with the primary amines of the proteins to form a stable dye protein conjugates. The labeling reaction was carried out at RT. A 16-point serial dilution (1:1) was prepared for compound at the final concentration ranged from 200 µM to 3 nM in PBS containing 0.05% tween. The samples were filled into Premium capillaries and measurements were conducted at 25° C. An equation implemented by the software MO-S002 MO Affinity Analysis, provided by the manufacturer, was used for fitting normalized fluorescence values at different concentrations of ligands.

Sequence of DDB1-BPB (Q16531 403-706): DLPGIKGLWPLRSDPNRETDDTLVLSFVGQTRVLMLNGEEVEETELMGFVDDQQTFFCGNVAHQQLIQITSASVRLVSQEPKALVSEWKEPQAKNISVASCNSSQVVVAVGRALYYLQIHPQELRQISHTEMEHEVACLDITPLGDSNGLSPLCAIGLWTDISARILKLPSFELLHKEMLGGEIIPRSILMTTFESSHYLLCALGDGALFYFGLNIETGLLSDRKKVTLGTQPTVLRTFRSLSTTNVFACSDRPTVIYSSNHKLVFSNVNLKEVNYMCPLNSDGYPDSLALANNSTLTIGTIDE
Sequence of CUL4A-DDB1-BPB interaction (Q16531 403-706): as above

Row | Structure (SMILES) | Solubility (DLS Assay) [1] | IC50 [2] [nM] | Degradation Inhibition (inhibition of UV-induced DDB2 degradation) [3] | EC50 [4] [µM] | EC50 [5] [µM] | Kd [6] [µM] | AlphaLisa IC50 [2] | Kd (MST) [6]
1 | CN(c1ccc(-c2nc(C(=O)O)cc3c2[nH]c2ccc(F)c(F)c23)cc1)S(=O)(=O)c1ccccc1 [PA1-1, 1-[4-[benzenesulfonyl(methyl)amino]phenyl]-5,6-difluoro-9H-pyrido[3,4-b]indole-3-carboxylic acid] | -(insoluble) | 170 | − | 15.2 | > 100 |  |  | 
2 | Cc1ccc(S(=O)(=O)N(C)c2ccc(-c3nc(C(=O)O)cc4c3[nH]c3ccc(F)cc34)cc2)cc1 [PA2-1, 6-fluoro-1-[4-[methyl-(p-tolylsulfonyl)amino]phenyl]-9H-pyrido[3,4-b]indole-3-carboxylic acid] | -(insoluble) | 300 | − | 9.32 | > 100 |  |  | 
3 | COc1ccc(S(=O)(=O)N(C)c2ccc(-c3nc(C(=O)O)cc4c3[nH]c3ccc(F)cc34)cc2)cc1 [PA2-2, 6-fluoro-1-[4-[(4-methoxyphenyl)-sulfonyl-methyl-amino]phenyl]-9H-pyrido[3,4-b]indole-3-carboxylic acid] | -(insoluble) | 890 | − | 8.45 | > 100 |  |  | 
4 | CN(c1ccc(-c2nc(C(=O)O)cc3c2[nH]c2ccc(F)cc23)cc1)S(=O)(=O)c1ccc(F)cc1 [PA2-3, 6-fluoro-1-[4-[(4-fluorophenyl)sulfonyl-methyl-amino]phenyl]-9H-pyrido[3,4-b]indole-3-carboxylic acid] | -(insoluble) | 480 | − | 13.3 | > 100 |  |  | 
5 | CN(c1ccc(-c2nc(C(=O)O)cc3c2[nH]c2ccc(F)cc23)cc1)S(=O)(=O)c1cccnc1 [PA2-6, 6-fluoro-1-(4-(N-methylpyridine-3-sulfonamido)phenyl)-9H-pyrido[3,4-b]indole-3-carboxylic acid] | -(insoluble) | 470 | − | 22.3 | > 100 | 25.5 |  | 
6 | O=[N+]([O-])c1ccc(-c2nc(-c3nn[nH]n3)cc3c2[nH]c2ccccc23)cc1 [PA40, 1-(4-nitrophenyl)-3-(1H-tetrazol-5-yl)-9H-pyrido[3,4-b]indole] | -(insoluble) | 12900 ± 7440 |  | 23.5 | 54.7 |  |  | 
7 | COC(=O)c1cc2c([nH]c3ccccc32)c(-c2ccc(S(C)(=O)=O)cc2)n1 [PA54] | -(insoluble) |  | + | > 100 | > 100 |  | Neg | 
8 | COC(=O)c1cc2c([nH]c3ccccc32)c(-c2ccc(NCc3ccc(F)cc3)cc2)n1 [PA57, methyl 1-[4-[(4-fluorophenyl)methylamino]phenyl]-9H-pyrido[3,4-b]indole-3-carboxylate] | -(insoluble) |  |  | 1.08 | 1.6 |  | Neg | Insoluble
9 | COC(=O)c1cc2c([nH]c3ccccc32)c(-c2ccc(SCc3ccccc3)cc2)n1 [PA64, methyl 1-(4-benzylsulfanylphenyl)-9H-pyrido[3,4-b]indole-3-carboxylate] |  |  |  | 22.8 | > 20 |  | Neg | Insoluble
10 | COC(=O)c1cc2c([nH]c3ccccc32)c(-c2ccc(S(=O)(=O)Cc3ccccc3)cc2)n1 [PA65, methyl 1-(4-benzylsulfonylphenyl)-9H-pyrido[3,4-b]indole-3-carboxylate] | -(insoluble) |  |  | 18.1 | 44.3 |  | Neg | 
11 | O=C(O)c1cc2c([nH]c3ccccc32)c(-c2ccc(SCc3ccccc3)cc2)n1 [PA66, 1-(4-benzylsulfanylphenyl)-9H-pyrido[3,4-b]indole-3-carboxylic acid] |  | 5990 ± 430 |  | 4.41 | 4 | 59.6 |  | 
12 | COC(=O)c1cc2c([nH]c3ccc(F)cc32)c(-c2ccc(N(C)S(=O)(=O)c3ccccc3)cc2)n1 [PA93-1] | -(insoluble) |  | − | 21.8 | > 100 |  | Neg | 
13 | COC(=O)c1cc2c([nH]c3cccc(F)c32)c(-c2ccc(N(C)S(=O)(=O)c3ccccc3)cc2)n1 [PA99-1, methyl 5-fluoro-1-(4-(N-methylphenylsulfonamido)phenyl)-9H-pyrido[3,4-b]indole-3-carboxylate] | -(insoluble) |  | + | 3.47 | > 100 | 321 | Neg | 
14 | Cc1ccc2c(c1)[nH]c1c(-c3ccc(N(C)S(=O)(=O)c4ccccc4)cc3)nc(C(=O)O)cc12 [PA106, 1-[4-[benzenesulfonyl(methyl)amino]phenyl]-7-methyl-9H-pyrido[3,4-b]indole-3-carboxylic acid] | +/− | 7730 |  | 7.98 | > 100 | 443 |  | 
15 | CN(c1ccc(-c2nc(C(=O)O)cc3c2[nH]c2cc(-c4ccccc4)ccc23)cc1)S(=O)(=O)c1ccccc1 [PA115, 1-[4-[benzenesulfonyl(methyl)amino]phenyl]-7-phenyl-9H-pyrido[3,4-b]indole-3-carboxylic acid] | -(insoluble) | 17400 ± 7420 |  | 2.15 | 3.86 | 257 |  | 
16 | CN(c1ccc(-c2nc(C(=O)O)cc3c2[nH]c2cc(Br)ccc23)cc1)S(=O)(=O)c1ccccc1 [PA117, 1-[4-[benzenesulfonyl(methyl)amino]phenyl]-7-bromo-9H-pyrido[3,4-b]indole-3-carboxylic acid] |  | 2500 |  | 3.42 | 5.48 | 25.4 |  | 
